Reference: patent US11332438B2, “Creatine prodrugs, compositions and methods of use thereof” (Ultragenyx Pharmaceutical Inc., priority 2017, dated 2022)

Tests used:
[1] = Plasma stability, human plasma; assay type: in vitro ADME; conditions: Table 2A, 37 °C, read-out: Plasma Stability Human t1/2
How it was run: (§1)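 Half-life (min) from LC-MS/MS of acetonitrile-quenched samples taken at t=0, 2, 5, 15, 30 min. Compound dosed at 1 µM final into plasma pre-warmed to 37 °C, pH set to 7.4 where required; incubations at 37 °C.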

[2] = Plasma stability, mouse plasma; assay type: in vitro ADME; conditions: Table 2A, 37 °C, read-out: Plasma Stability Mouse t1/2
How it was run: as §1

[3] = Liver microsome stability, human; assay type: in vitro ADME; conditions: liver microsomes, pH 7.4, Table 2A, read-out: Microsome Stability Human t1/2
How it was run: (§2)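 Remaining compound measured by LC/MS after acetonitrile/internal-standard quench at 0–60 min time points (0, 5, 10, 20, 30, 60). Incubations used mouse or human liver microsomes in pH 7.4 potassium phosphate/EDTA buffer with NADPH; a 60-min sample without NADPH served as control.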

[4] = Liver microsome stability, mouse; assay type: in vitro ADME; conditions: liver microsomes, pH 7.4, Table 2A, read-out: Microsome Stability Mouse t1/2
How it was run: as §2

[5] = Chemical stability in phosphate buffered saline (PBS); assay type: physicochemical; conditions: 50 μM prodrug
How it was run: (§3)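 Incubations used 50 μM compound at 37 °C in phosphate buffered saline, fasted simulated intestinal fluid without pancreatin, or fasted simulated gastric fluid without pepsin.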

[6] = Chemical stability in simulated gastric fluid (SGF) without pepsin; assay type: physicochemical; conditions: 50 μM prodrug
How it was run: as §3

Compound	half-life [1]	half-life [2]	half-life at 10 μM [3]	half-life at 10 μM [4]	Chemical Stability PBS % T0 at 2 hours at 37 °C. ([5]; Table 2A)	Chemical Stability SGF, no enzyme % T0 at 2 hours at 37 °C. ([6]; Table 2A)	Chemical Stability PBS % T0 at 2 hours at 37 °C. ([5]; Table 2B)	Chemical Stability SGF, no enzyme % T0 at 2 hours at 37 °C. ([6]; Table 2B)
Cl.[H]/N=C(/NC(=O)CCCCCCC/C=C\CCCCCCCC)N(CC(=O)OCCCCCCC)C([2H])([2H])[2H] [Compound 2, (Z)-heptyl 2-(1-trideuteriomethyl-3-oleoylguanidino)acetate Hydrochloride]	< 5 min	< 5 min	6 min	7 min	61%	81%	–	–
Cl.[2H]C([2H])([2H])N(CC(=O)OCC)C(=N)NC(=O)CCCCCCCCCC [Compound 8]	< 5 min	< 5 min	< 5 min	< 5 min	0%	117%	0%	95%
Cl.[2H]C([2H])([2H])N(CC(=O)OCCCCCCC)C(=N)NC(=O)CCCCCCCCCCCC [Compound 11]	< 5 min	< 5 min	< 5 min	< 5 min	42%	76%	–	–
